Two compounds from patent US20050282863A1, “Novel-N substituted dihydrobenzothiepino, dihydrobenzoxepino and tetrahydro benzocyclohepta indoles as selective estrogen receptor modulators” (Council of Scientific & Industrial Research, priority 2004, published 2005) can be followed below.

In experiment [1] the test system is immature ovariectomized rats. The experiment can be described thus: Estrogen antagonistic activity: inhibition in 17α-ethynylestradiol induced uterine weight gain in immature ovariectomized rats. In kind it is in vivo, rat. The note with it: Rattus norvegicus, 72 h, 3 days, read-out: Percent inhibition in 17α-ethynylestradiol induced uterine weight gain; for inhibition in vivo at 10 mg/kg/day: daily dose 10 mg/kg with 0.02 mg/kg 17-alfa-ethynylestradiol.

Another experiment relates to adult female rats. The experiment can be described thus: Post-coital antifertility efficacy in adult female rats. In kind it is in vivo, rat. The note with it: daily dose 10 mg/kg, oral, days 1-7 post-coitum.

In the case of `CCCCN(C)CCCCCn1c2c(c3ccccc31)CCSc1ccccc1-2` [Example number 13, 12-[5-(N-butylmethylamino)pentyl]-6,7-dihydro-12H-benzothiepino [5,4-b]indole], the inhibition in vivo at 1 mg/kg/day in experiment [1] (daily dose 1 mg/kg with 0.02 mg/kg 17-alfa-ethynylestradiol) came out at 12%. Further, the inhibition in vivo at 10 mg/kg/day in experiment [1] is 37%. In addition, the “% Efficacy” value with adult female rats is listed as “Inactive”.

As for `c1ccc2c(c1)SCCc1c-2n(CCCCCCN2CCCCC2)c2ccccc12` [Example number 18, 12-[6-(Piperidine-1-yl)hexyl]-6,7-dihydro-12H-benzothiepino [5,4-b]indole], the inhibition in vivo at 10 mg/kg/day in experiment [1] came to 19%. Besides, in the experiment on adult female rats, the “% Efficacy” value is recorded as “Inactive”.
